The compounds below were run against T1, purified recombinantly expressed human SSAO (Homo sapiens, UniProt Q16853) (assay: SSAO enzyme inhibition assay (benzylamine substrate; hydrogen peroxide/HRP-coupled or 14C-benzaldehyde detection)). Conditions: human recombinant SSAO, benzylamine as substrate, rt.
T1 construct: made in house
T1 sequence (Q16853 29-763 limits assumed): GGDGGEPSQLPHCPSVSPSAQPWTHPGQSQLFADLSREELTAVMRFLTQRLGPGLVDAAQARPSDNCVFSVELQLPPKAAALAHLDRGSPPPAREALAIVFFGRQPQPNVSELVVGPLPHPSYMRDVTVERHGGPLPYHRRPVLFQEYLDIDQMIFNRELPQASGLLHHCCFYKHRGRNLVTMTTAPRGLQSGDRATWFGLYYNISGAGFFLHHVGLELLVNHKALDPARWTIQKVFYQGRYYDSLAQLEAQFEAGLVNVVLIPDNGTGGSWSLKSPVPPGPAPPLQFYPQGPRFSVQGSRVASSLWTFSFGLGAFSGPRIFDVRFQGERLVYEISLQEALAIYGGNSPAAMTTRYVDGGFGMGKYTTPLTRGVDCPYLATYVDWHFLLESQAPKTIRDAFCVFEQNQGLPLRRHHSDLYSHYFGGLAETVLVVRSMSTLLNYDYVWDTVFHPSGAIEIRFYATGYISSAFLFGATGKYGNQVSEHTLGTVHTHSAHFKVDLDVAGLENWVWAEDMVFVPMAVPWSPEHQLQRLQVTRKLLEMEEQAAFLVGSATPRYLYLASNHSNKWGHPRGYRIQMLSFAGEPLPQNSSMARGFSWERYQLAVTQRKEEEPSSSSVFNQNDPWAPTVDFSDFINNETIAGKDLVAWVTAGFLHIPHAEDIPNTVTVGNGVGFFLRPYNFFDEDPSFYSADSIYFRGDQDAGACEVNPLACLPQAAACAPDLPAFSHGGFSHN
Assay type: biochemical
Description: All primary assays were performed in rt with purified recombinantly expressed human SSAO. Enzyme was prepared essentially as described in Öhman et al. (Protein Expression and Purification 46 (2006) 321-331). In addition, secondary- and selectivity assays were performed using SSAO prepared from various tissues or purified rat recombinant SSAO. The enzyme activity was assayed with benzylamine as substrate by measuring either benzaldehyde production, using ^14C-labeled substrate, or by utilizing the production of hydrogen peroxide in a horseradish peroxidise (HRP) coupled reaction. Briefly, test compounds were dissolved in dimethyl sulfoxide (DMSO) to a concentration of 10 mM. Dose-response measurements were assayed by either creating 1:10 serial dilutions in DMSO to produce a 7 point curve or by making 1:3 serial dilutions in DMSO to produce 11 point curves. The top concentrations were adjusted depending on the potency of the compounds and subsequent dilution in reaction buffer yielded a final DMSO concentration≦2%.
In a horseradish peroxidise (HRP) coupled reaction, hydrogen peroxide oxidation of 10-acetyl-3,7-dihydroxyphenoxazine produced resorufin, which is a highly fluorescent compound (Zhout and Panchuk-Voloshina. Analytical Biochemistry 253 (1997) 169-174; Amplex® Red Hydrogen Peroxide/peroxidise Assay kit, Invitrogen A22188). Enzyme and compounds in 50 mM sodium phosphate, pH 7.4 were set to pre-incubate in flat-bottomed microtiter plates for approximately 15 minutes before initiating the reaction by addition of a mixture of HRP, benzylamine and Amplex reagent. Benzylamine concentration was fixed at a concentration corresponding to the Michaelis constant, determined using standard procedures. Fluorescence intensity was then measured at several time points during 1-2 hours, exciting at 544 nm and reading the emission at 590 nm. For the human SSAO assay final concentrations of the reagents in the assay wells were: SSAO enzyme […], benzylamine 100 μM, Amplex reagent 20 μM, HRP 0.1 U/mL and varying concentrations of test compound. The inhibition was measured as % decrease of the signal compared to a control without inhibitor (only diluted DMSO). The background signal from a sample containing no SSAO enzyme was subtracted from all data points. Data was fitted to a four parameter logistic model and IC50 values were calculated using the GraphPad Prism 4 or XLfit 4 programs.
SSAO activity was assayed using 14C-labeled benzylamine and analysed by measuring radioactive benzaldehyde. […] Phase separation occurred instantly and activity was read in a Topcount scintillation counter (Perkin-Elmer). […] Data was analysed as above.

SMILES	IC50 [nM]
OCc1c(-c2ccc(Br)cc2)nc2ccc(C(F)(F)F)cn12 [Example 23, [2-(4-Bromophenyl)-6-(trifluoromethyl)imidazo[1,2-a]pyridin-3-yl]methanol]	88
O=C(c1ccc2nc(-c3ccc(Cl)cc3)c(CO)n2c1)N1CCC(CO)CC1 [Example 62, (1-{[2-(4-Chlorophenyl)-3-(hydroxymethyl)imidazo[1,2-a]pyridin-6-yl]carbonyl}piperidin-4-yl)methanol]	155
COc1cccc(-c2nc3cnc(Br)cn3c2CO)c1 [Example 81, [6-Bromo-2-(3-methoxyphenyl)imidazo[1,2-a]pyrazin-3-yl]methanol]	248
CC(O)c1cn2c(CO)c(-c3ccc(Cl)cc3)nc2s1 (stereo not shown) [Example 106, 1-[6-(4-Chlorophenyl)-5-(hydroxymethyl)imidazo[2,1-b][1,3]thiazol-2-yl]ethanol]	89

Source: patent publication US20150239905A1, “IMIDAZOPYRIDINE COMPOUNDS” (Proximagen Limited, priority 2008, published 2015)
